# Experimental data published in US20160022681A1, “METHODS OF INCREASING LYMPHATIC TRANSPORT” (UNIVERSITY OF ROCHESTER, priority 2012, published 2016).
# “Also recorded” adds a separate entry of the source. Bridge positions count the residues as written; N and C are the ends. Ends that are not written are not given here.
# Test system: lymphatic vessels
# Test: near-infrared (NIR) imaging of indocyanine green (ICG) transport after footpad injection
# Assay type: in vivo
# Conditions: mouse, sildenafil 12 mg/kg intraperitoneally, images taken 20 minutes after treatment, versus saline control
# Experimental: To determine if phosphodiesterase (PDE) inhibitors were capable of increasing lymphatic transport, near-infrared (NIR) imaging of indocyanine green ICG) transport was used. ICG (20 μl of 0.1 mg ICG/ml water) was injected into the footpad Of the animal Where it is taken up by the lymphatic system. The extremity was illuminated with near infrared light (generated with a tungsten halogen source) resulting in near infrared fluorescence at a longer wavelength that was recorded with a near-infrared sensitive camera (Prosilica GC1380; Allied Vision Technologies; Stadtroda, Germany). Excitation and emission wavelengths were separated using Semrock filters (IDEX; Lake Forest, Ill.) from the ICG-A filter set. To determine if PDE inhibitors Were capable of increasing lymphatic transport, sildenafil (12 mg/kg), a PDE5 antagonist, was injected intraperitoneally with ICG into the footpad of a mouse. Saline was used a control.
row,Compound,ICG uptake into lymphatic vessels / lymphatic system
1,CCCc1nn(C)c2c(=O)[nH]c(-c3cc(S(=O)(=O)N4CCN(C)CC4)ccc3OCC)nc12 [sildenafil],increases indocyanine green (ICG) uptake into lymphatic vessels; also recorded: increased ICG uptake into the lymphatic system

# Test system: lymphatic vessels
# Test: not given
# Conditions: ex vivo studies; cited from earlier work
row,Compound,lymphatic pulsing and/or flow
1,CCCCC[C@H](O)/C=C/[C@@H]1[C@@H](C/C=C\CCCC(=O)O)[C@H]2CO[C@@H]1C2 [U46619],increase lymphatic pulsing and/or flow
2,O=S(=O)(O)c1cc(O)ccc1O [doxium],increase lymphatic pulsing and/or flow
3,"substance P (RPKPQQFFGLM-NH2; ends and bridges not checked; UniProt P20366 58-68, looked up)",increase lymphatic pulsing and/or flow
4,NC[C@H](O)c1ccc(O)c(O)c1 [norepinephrine],increase lymphatic pulsing and/or flow
5,"endothelin-1 (CSCSSLMDKECVYFCHLDIIW; disulfide 1-15, 3-11; ends not checked; UniProt P05305 53-73, looked up)",increase lymphatic pulsing and/or flow
6,hyaluronidase,increase lymphatic pulsing and/or flow
